We go through 42 molecules from patent publication US11773085B2 (Foghorn Therapeutics Inc., priority 2018, dated 2023).

The test has as its target BRD9 bromodomain (Homo sapiens (Human), UniProt Q9H8M2). Put plainly: BRD9 bromodomain TR-FRET competition binding assay. The note with it: 3 nM Flag-BRD9, 3.75 nM biotinylated ligand, 90 minutes at room temperature. On the procedure: Cleaved His tag was removed by purification.
A mixture of biotinylated-ligand and SureLight™ Allophycocyanin-Streptavidin (APC-SA, PerkinElmer AD0201) in 50 mM HEPES (pH 7.4), 50 mM NaCl, 1 mM TCEP (pH 7), 0.01% (v/v) Tween-20, 0.01% (w/v) bovine serum albumin was added to a white 384-well PerkinElmer Proxiplate Plus plate. DMSO or 3-fold serially diluted compounds were then added to the Proxiplate followed by addition of Flag-BRD9. After a 10 minute incubation at room temperature, Eu-W1024 anti-FLAG (PerkinElmer, AD0273) was added.
On the technique in general: TR-FRET usually uses a lanthanide donor and a delayed reading to cut background.
By IC50 is commonly meant the point on the concentration scale where inhibition reaches its midpoint. A lower IC50 goes with greater potency in that assay. Take `Cn1cc(C(=O)NCc2ccccc2)c2ccncc2c1=O` [Compound B3]: the IC50 was > 1000 nM.
In the case of `Cn1cc(C(=O)NCc2cccc3ccccc23)c2cn[nH]c2c1=O` [Compound B4], the IC50 was > 1000 nM.
`Cn1cc(C(=O)NCc2ccccc2)c2cn[nH]c2c1=O` [Compound B5]: the IC50 was > 1000 nM.
As for `CCNC(=O)c1cn(C)c(=O)c2[nH]ncc12` [Compound B6], the figure is > 1000 nM; as for `CN(Cc1ccccc1)C(=O)c1cn(C)c(=O)c2[nH]ncc12` [Compound B7], > 1000 nM.
`Cn1cc(C(=O)Nc2ccccc2)c2cn[nH]c2c1=O` [Compound B8]: the IC50 is > 1000 nM.
For `CCn1cc(C(=O)NCc2ccccc2)c2cn[nH]c2c1=O` [Compound B9], the IC50 is > 1000 nM.
Under `CCCn1cc(C(=O)NCc2ccccc2)c2cn[nH]c2c1=O` [Compound B10] stands > 1000 nM; under `CCN(C)C(=O)c1cn(C)c(=O)c2[nH]ncc12` [Compound B11], > 1000 nM; under `CC(C)n1cc(C(=O)NCc2ccccc2)c2cn[nH]c2c1=O` [Compound B12], > 1000 nM.
As for `O=C(NCc1ccccc1)c1cn(CC2CC2)c(=O)c2[nH]ncc12` [Compound B13], the figure is > 1000 nM.
As for `CNCc1ccc(-c2cn(C)c(=O)c3[nH]ccc23)cc1` [Compound B14], the figure is 10 to 100 nM; as for `C/C=C/Cn1cc(-c2ccc(CNC)c(C#N)c2)c2cc(C)[nH]c2c1=O` [Compound B15], 10 to 100 nM; as for `CC(=O)c1cc(-c2cccc3nccn23)c2cc(N3CCOCC3)ccn12` [Compound B16, 1-(1-[imidazo[1,2-a]pyridin-5-yl]-7-(morpholin-4-yl)indolizin-3-yl)ethan-1-one], 100 to 1000 nM.
With `CC(=O)c1cc(-c2cccc3nccn23)c2cc(N3CCN(C)CC3)ccn12` [Compound B17, 1-(1-[imidazo[1,2-a]pyridin-5-yl]-7-(4-methylpiperazin-1-yl)indolizin-3-yl)ethan-1-one], the IC50 lay within 100 to 1000 nM.
As for `CNCc1c(OC)cc(-c2cn(C3CC3)c(=O)c3cnccc23)cc1OC` [Compound B18, 2-cyclopropyl-4-[3,5-dimethoxy-4-[(methylamino)methyl]phenyl]-2,7-naphthyridin-1-one], the figure is 10 to 100 nM; as for `CC(=O)c1cc(-c2cccc3nccn23)c2cc(N3CCNCC3)ccn12` [Compound B19, 1-(1-[imidazo[1,2-a]pyridin-5-yl]-7-(piperazin-1-yl)indolizin-3-yl)ethan-1-one], 100 to 1000 nM.
As for `COc1cc(-c2cn(C)c(=O)c3cnccc23)cc(OC)c1CN1CC(N)C1` [Compound B20, 4-[4-[(3-aminoazetidin-1-yl)methyl]-3,5-dimethoxyphenyl]-2-methyl-1,2-dihydro-2,7-naphthyridin-1-one], the figure is < 10 nM.
As for `COc1cc(-c2cn(C)c(=O)c3cnccc23)cc(OC)c1CN1CC(C(=O)O)C1` [Compound B21, 1-[[2,6-dimethoxy-4-(2-methyl-1-oxo-1,2-dihydro-2,7-naphthyridin-4-yl)phenyl]methyl]azetidine-3-carboxylic acid], the figure is 10 to 100 nM; as for `COc1cc(-c2cn(C3CC3)c(=O)c3cnccc23)cc(OC)c1CN(C)C` [Compound B22, 2-cyclopropyl-4-[4-[(dimethylamino)methyl]-3,5-dimethoxyphenyl]-2,7-naphthyridin-1-one], 10 to 100 nM.
As for `COc1cc(C#N)ccc1S(=O)(=O)Nc1ccc2c(c1)cc(C)c(=O)n2C` [Compound B26], the 50% inhibitory concentration (IC50) is > 1000 nM.
With `COc1cc(-c2cc(N)c(=O)n(C)c2)cc(OC)c1CN(C)C` [Compound B28, 3-amino-5-(4-((dimethylamino)methyl)-3,5-dimethoxyphenyl)-1-methylpyridin-2(1H)-one], the IC50 fell in the range of 10 to 100 nM.
As to `COc1cc(-c2cc(NC(C)=O)c(=O)n(C)c2)cc(OC)c1CN(C)C` [Compound B29, N-(5-[4-[(dimethylamino)methyl]-3,5-dimethoxyphenyl]-1-methyl-2-oxo-1,2-dihydropyridin-3-yl)acetamide], the IC50 lay in the range of 100 to 1000 nM.
Under `CCC(=O)Nc1cc(-c2cc(OC)c(CN(C)C)c(OC)c2)cn(C)c1=O` [Compound B30, N-(5-[4-[(dimethylamino)methyl]-3,5-dimethoxyphenyl]-1-methyl-2-oxo-1,2-dihydropyridin-3-yl)propanamide] stands 100 to 1000 nM; under `CCC(=O)Nc1c(C)c(-c2cc(OC)c(CN(C)C)c(OC)c2)cn(C)c1=O` [Compound B31, N-(5-[4-[(dimethylamino)methyl]-3,5-dimethoxyphenyl]-1,4-dimethyl-2-oxo-1,2-dihydropyridin-3-yl)propanamide], > 1000 nM.
As for `CCOC(=O)Nc1cc(-c2cc(OC)c(CN(C)C)c(OC)c2)cn(C)c1=O` [Compound B32], the figure is 10 to 100 nM; as for `COc1cc(-c2cn(C)c(=O)c3nccnc23)cc(OC)c1CN(C)C` [Compound B33, 8-[4-[(dimethylamino)methyl]-3,5-dimethoxyphenyl]-6-methylpyrido[3,4-b]pyrazin-5-one], 100 to 1000 nM.
For the molecule `CNC(=O)C1CN(Cc2c(OC)cc(-c3cn(C)c(=O)c4cnccc34)cc2OC)C1` [Compound B34, 1-[[2,6-dimethoxy-4-(2-methyl-1-oxo-1,2-dihydro-2,7-naphthyridin-4-yl)phenyl]methyl]-N-methylazetidine-3-carboxamide formic acid], the concentration for half-maximal inhibition (IC50) was < 10 nM.
Molecule `CSc1cc(-c2cn(C)c(=O)c3cnccc23)ccc1CN(C)C` [Compound B36, 4-[4-[(dimethylamino)methyl]-3-(methylsulfanyl)phenyl]-2-methyl-1,2-dihydro-2,7-naphthyridin-1-one] displayed an IC50 of 10 to 100 nM.
`CN(C)Cc1ccc(-c2cn(C)c(=O)c3cnccc23)cc1S(C)(=O)=O` [Compound B37, 4-[4-[(dimethylamino)methyl]-3-methanesulfonylphenyl]-2-methyl-2,7-naphthyridin-1-one] returned an IC50 of 100 to 1000 nM.
Under `COc1cc(-c2cn(C)c(=O)c3cnccc23)cc(OC)c1CN(C)S(C)(=O)=O` [Compound B38, N-[[2,6-dimethoxy-4-(2-methyl-1-oxo-2,7-naphthyridin-4-yl)phenyl]methyl]-N-methylmethanesulfonamide] stands < 10 nM; under `COc1cc(-c2cn(C)c(=O)c3cnccc23)cc(OC)c1CN(C)S(=O)(=O)C1CC1` [Compound B39, N-[[2,6-dimethoxy-4-(2-methy-1-oxo-2,7-naphthyridin-4-yl)phenyl]methyl]-N-methyl cyclopropanesulfonamide], < 10 nM; under `COc1cc(-c2cn(C)c(=O)c3cnccc23)cc(OC)c1CN(C)S(=O)(=O)CC(C)C` [Compound B40, N-[[2,6-dimethoxy-4-(2-methyl-1-oxo-2,7-naphthyridin-4-yl)phenyl]methyl]-N,2-dimethylpropane-1-sulfonamide], < 10 nM.
Turning to `COc1cc(-c2cn(C)c(=O)c3cnccc23)cc(OC)c1CN1CC(CC(=O)O)C1` [Compound B41, 2-(1-[[2,6-dimethoxy-4-(2-methyl-1-oxo-1,2-dihydro-2,7-naphthyridin-4-yl)phenyl]methyl]azetidin-3-yl)acetic acid formic acid], the IC50 was in the range of 10 to 100 nM.
As for `CCOC(=O)Nc1c(C)c(-c2cc(OC)c(CN(C)C)c(OC)c2)cn(C)c1=O` [Compound B42, ethyl N-(5-[4-[(dimethylamino)methyl]-3,5-dimethoxyphenyl]-1,4-dimethyl-2-oxo-1,2-dihydropyridin-3-yl)carbamate], the figure is > 1000 nM; as for `COc1cc(-c2cn(C)c(=O)c3[nH]ncc23)cc(OC)c1CN(C)C` [Compound B43, 4-(4-((dimethyllamino)methyl)-3,5-dimethoxyphenyl)-6-methyl-1,6-dihydro-7H-pyrazolo[3,4-c]pyridin-7-one], < 10 nM.
Under `COc1cc(-c2cn(C)c(=O)c3cnccc23)cc(OC)c1CN1CC(C(=O)NCCCCCCCCNc2ccccc2)C1` [Compound B44, 1-[[2,6-dimethoxy-4-(2-methyl-1-oxo-1,2-dihydro-2,7-naphthyridin-4-yl)phenyl]methyl]-N-[8-(phenylamino)octyl]azetidine-3-carboxamide] stands < 10 nM; under `COc1cc(-c2cn(C)c(=O)c3cnccc23)cc(OC)c1CN1CC[C@H]1C(=O)O` [Compound B45, (2S)-1-[[2,6-dimethoxy-4-(2-methyl-1-oxo-2,7-naphthyridin-4-yl)phenyl]methyl] azetidine-2-carboxylic acid], 10 to 100 nM.
Under `COc1cc(-c2cn(C)c(=O)c3[nH]cnc23)cc(OC)c1CN(C)C` [Compound B47, 7-[4-[(dimethylamino)methyl]-3,5-dimethoxyphenyl]-5-methyl-3H-imidazo[4,5-c]pyridin-4-one formic acid] stands 10 to 100 nM.
The molecule `COc1cc(-c2cc(C)c(=O)n(C)c2)cc(OC)c1CN1CC(C(=O)O)C1` [Compound B48, 1-[[4-(1,5-dimethyl-6-oxopyridin-3-yl)-2,6-dimethoxyphenyl]methyl]azetidine-3-carboxylic acid] returned an IC50 of 100 to 1000 nM.
Under `COc1cc(-c2cn(C)c(=O)c3cnccc23)cc(OC)c1CN(C)S(=O)(=O)C(C)C` [Compound B49, N-[[2,6-dimethoxy-4-(2-methyl-1-oxo-2,7-naphthyridin-4-yl)phenyl]methyl]-N-methyl propane-2-sulfonamide] stands 10 to 100 nM; under `COc1cc(-c2cn(C)c(=O)c3cnncc23)cc(OC)c1CN(C)C` [Compound B52, 8-[4-[(dimethylamino)methyl]-3,5-dimethoxyphenyl]-6-methyl-5H,6H-pyrido[3,4-d]pyridazin-5-one], 10 to 100 nM.
